Activity calls are given as the source filed them. The calls are words filed in the database; no cut-off is given here.
Tests used:
[1] = tested on: Plasmodium falciparum; experiment: Antimalarial activity against chloroquine-resistant Plasmodium falciparum W2 assessed as [3H]hypoxanthine incorporation; assay type: functional, organism-based
[2] = tested on: Plasmodium falciparum; experiment: Antimalarial activity against […]-resistant Plasmodium falciparum TM91C235 assessed as [3H]hypoxanthine incorporation; assay type: functional, organism-based
[3] = tested on: Plasmodium falciparum; experiment: Antimalarial activity against chloroquine-resistant Plasmodium falciparum W2 after 72 hrs; assay type: functional, organism-based; conditions: W2, 72 h
[4] = tested on: Plasmodium falciparum; experiment: Antimalarial activity against chloroquine-sensitive Plasmodium falciparum D6 after 72 hrs; assay type: functional, organism-based; conditions: D6, 72 h
[5] = tested on: Vero; experiment: Cytotoxicity against african green monkey Vero cells upto 10 uM after 72 hrs; assay type: cell-based; conditions: chlorocebus sabaeus
[6] = Selectivity index, ratio of IC50 for african green monkey Vero cells to IC50 for chloroquine-sensitive Plasmodium falciparum D6; assay type: toxicity, cell-based; conditions: read-out: Selectivity Index
[7] = Selectivity index, ratio of IC50 for african green monkey Vero cells to IC50 for chloroquine-resistant Plasmodium falciparum W2; assay type: toxicity, cell-based; conditions: read-out: Selectivity Index
[8] = Inhibition of beta-hematin formation after 14 hrs by spectrophotometry; assay type: functional
[9] = tested on: Plasmodium berghei; experiment: Antimalarial activity against Plasmodium berghei NK-65 infected in Swiss Webster mouse assessed as suppression of parasitemia at 30 mg/kg, ip QD for 3 days administered 2 hrs post infection measured on day 5; assay type: functional; conditions: route intraperitoneal
[10] = tested on: Plasmodium berghei; experiment: Antimalarial activity against Plasmodium berghei NK-65 infected in Swiss Webster mouse assessed as suppression of parasitemia at 30 mg/kg, ip QD for 3 days administered 2 hrs post infection measured on day 7; assay type: functional; conditions: route intraperitoneal
[11] = tested on: Plasmodium berghei; experiment: Antimalarial activity against Plasmodium berghei NK-65 infected in Swiss Webster mouse assessed as suppression of parasitemia at 30 mg/kg, ip QD for 3 days administered 2 hrs post infection measured on day 10; assay type: functional; conditions: route intraperitoneal
[12] = tested on: Plasmodium berghei; experiment: Antimalarial activity against Plasmodium berghei NK-65 infected in Swiss Webster mouse assessed as mean survival time at 30 mg/kg, ip QD for 3 days administered 2 hrs post infection; assay type: functional; conditions: route intraperitoneal
[13] = tested on: Plasmodium berghei; experiment: Antimalarial activity against Plasmodium berghei NK-65 infected in Swiss Webster mouse assessed as cure from parasite infection at 30 mg/kg, ip QD for 3 days administered 2 hrs post infection measured on day 28; assay type: functional; conditions: route intraperitoneal
[14] = tested on: Mus musculus; experiment: Toxicity in Plasmodium berghei NK-65 infected Swiss Webster mouse at 30 mg/kg, ip QD for 3 days; assay type: organism-based; set-up: dose 30 mg/kg, route intraperitoneal; conditions: in vivo, 72 h
[15] = tested on: Plasmodium falciparum; experiment: Antimalarial activity against chloroquine-sensitive Plasmodium falciparum D6 assessed as [3H]hypoxanthine incorporation; assay type: functional, organism-based
[16] = tested on: Plasmodium berghei; experiment: Antimalarial activity against Plasmodium berghei NK-65 infected in Swiss Webster mouse assessed as suppression of parasitemia at 1.1 mg/kg, ip QD for 3 days administered 2 hrs post infection measured on day 5; assay type: functional; conditions: route intraperitoneal
[17] = tested on: Plasmodium berghei; experiment: Antimalarial activity against Plasmodium berghei NK-65 infected in Swiss Webster mouse assessed as suppression of parasitemia at 1.1 mg/kg, ip QD for 3 days administered 2 hrs post infection measured on day 7; assay type: functional; conditions: route intraperitoneal
[18] = tested on: Plasmodium berghei; experiment: Antimalarial activity against Plasmodium berghei NK-65 infected in Swiss Webster mouse assessed as suppression of parasitemia at 1.1 mg/kg, ip QD for 3 days administered 2 hrs post infection measured on day 10; assay type: functional; conditions: route intraperitoneal
[19] = tested on: Plasmodium berghei; experiment: Antimalarial activity against Plasmodium berghei NK-65 infected in Swiss Webster mouse assessed as suppression of parasitemia at 3.3 mg/kg, ip QD for 3 days administered 2 hrs post infection measured on day 5; assay type: functional; conditions: route intraperitoneal
[20] = tested on: Plasmodium berghei; experiment: Antimalarial activity against Plasmodium berghei NK-65 infected in Swiss Webster mouse assessed as suppression of parasitemia at 3.3 mg/kg, ip QD for 3 days administered 2 hrs post infection measured on day 7; assay type: functional; conditions: route intraperitoneal
[21] = tested on: Plasmodium berghei; experiment: Antimalarial activity against Plasmodium berghei NK-65 infected in Swiss Webster mouse assessed as suppression of parasitemia at 3.3 mg/kg, ip QD for 3 days administered 2 hrs post infection measured on day 10; assay type: functional; conditions: route intraperitoneal
[22] = tested on: Plasmodium berghei; experiment: Antimalarial activity against Plasmodium berghei NK-65 infected in Swiss Webster mouse assessed as suppression of parasitemia at 10 mg/kg, ip QD for 3 days administered 2 hrs post infection measured on day 5; assay type: functional; conditions: route intraperitoneal
[23] = tested on: Plasmodium berghei; experiment: Antimalarial activity against Plasmodium berghei NK-65 infected in Swiss Webster mouse assessed as suppression of parasitemia at 10 mg/kg, ip QD for 3 days administered 2 hrs post infection measured on day 7; assay type: functional; conditions: route intraperitoneal
[24] = tested on: Plasmodium berghei; experiment: Antimalarial activity against Plasmodium berghei NK-65 infected in Swiss Webster mouse assessed as suppression of parasitemia at 10 mg/kg, ip QD for 3 days administered 2 hrs post infection measured on day 10; assay type: functional; conditions: route intraperitoneal
[25] = tested on: Plasmodium berghei; experiment: Antimalarial activity against Plasmodium berghei NK-65 infected in Swiss Webster mouse assessed as mean survival time at 1.1 mg/kg, ip QD for 3 days administered 2 hrs post infection measured on day 28; assay type: functional; conditions: route intraperitoneal
[26] = tested on: Plasmodium berghei; experiment: Antimalarial activity against Plasmodium berghei NK-65 infected in Swiss Webster mouse assessed as mean survival time at 3.3 mg/kg, ip QD for 3 days administered 2 hrs post infection; assay type: functional; conditions: route intraperitoneal
[27] = tested on: Plasmodium berghei; experiment: Antimalarial activity against Plasmodium berghei NK-65 infected in Swiss Webster mouse assessed as mean survival time at 10 mg/kg, ip QD for 3 days administered 2 hrs post infection; assay type: functional; conditions: route intraperitoneal
[28] = tested on: Plasmodium berghei; experiment: Antimalarial activity against Plasmodium berghei NK-65 infected in Swiss Webster mouse assessed as cure from parasite infection at 1.1 mg/kg, ip QD for 3 days administered 2 hrs post infection measured after 28 days; assay type: functional, organism-based; set-up: dose 1.1 mg/kg
[29] = tested on: Plasmodium berghei; experiment: Antimalarial activity against Plasmodium berghei NK-65 infected in Swiss Webster mouse assessed as cure from parasite infection at 3.3 mg/kg, ip QD for 3 days administered 2 hrs post infection measured on day 28; assay type: functional, organism-based; set-up: dose 3.3 mg/kg
[30] = tested on: Plasmodium berghei; experiment: Antimalarial activity against Plasmodium berghei NK-65 infected in Swiss Webster mouse assessed as cure from parasite infection at 10 mg/kg, ip QD for 3 days administered 2 hrs post infection measured on day 28; assay type: functional, organism-based; set-up: dose 10 mg/kg

## OC(c1cc(C(F)(F)F)nc2c(C(F)(F)F)cccc12)C1CCCCN1 (stereo not given) [MEFLOQUINE]
[1]
  IC50: 7.2 nM
[2]
  IC50: 55.8 nM

## Br.Clc1ccc2c(N3CCNCCNCCNCC3)ccnc2c1
[3]
  IC50: 211 nM
[4]
  IC50: 64.8 nM
[5]
  Activity: Non-toxic
[6]
  selectivity ratio: > 154
[7]
  selectivity ratio: > 48

## CCN(CC)CCCC(C)Nc1ccnc2cc(Cl)ccc12 (stereo not given) [CHLOROQUINE]
[5]
  Activity: Non-toxic
[8]
  IC50: 9500 nM
[9]
  Activity: 100%
[10]
  Activity: 100%
[11]
  Activity: 100%
[12]
  Time: >28 days
[13]
  Activity: 75%
[14]
  Activity: Non-toxic

## C[C@@H]1CC[C@H]2[C@@H](C)C(=O)O[C@@H]3O[C@@]4(C)CC[C@@H]1[C@]32OO4 [ARTEMISININ]
[5]
  Activity: Non-toxic

## Clc1ccc2c(N3CCNCCN(c4ccnc5cc(Cl)ccc45)CCNCC3)ccnc2c1
[3]
  IC50: 19.2 nM
[4]
  IC50: 7.5 nM
[5]
  Activity: Non-toxic
[6]
  selectivity ratio: > 1330
[7]
  selectivity ratio: > 521
[15]
  IC50: 4.1 nM
[1]
  IC50: 5.8 nM
[2]
  IC50: 2.5 nM
[8]
  IC50: 1100 nM
[16]
  Activity: 65.2%
[17]
  Activity: 33.3%
[18]
  Activity: 22.7%
[19]
  Activity: 84.6%
[20]
  Activity: 44.1%
[21]
  Activity: 43.9%
[22]
  Activity: 96.3%
[23]
  Activity: 59.7%
[24]
  Activity: 40.9%
[9]
  Activity: 100%
[10]
  Activity: 100%
[11]
  Activity: 100%
[25]
  Time: 23.8 days
[26]
  Time: 22.8 days
[27]
  Time: 26.2 days
[12]
  Time: >28 days
[28]
  Activity: inactive
[29]
  Activity: inactive
[30]
  Activity: inactive
[13]
  Activity: 60%
